# Test results from ChEMBL document CHEMBL4340517, “Synthesis and biological evaluation of 7-substituted cycloberberine derivatives as potent antibacterial agents against MRSA” (2019).
# Active and inactive are the calls of the source. No cut-off for these calls is given here.
# Legend:
# [1] = system: Staphylococcus aureus; test: Antibacterial activity against methicillin-sensitive Staphylococcus aureus ATCC 29213 after 18 hrs by agar dilution method; assay type: functional; details: ATCC 29213, 18 h
# [2] = system: Staphylococcus aureus; test: Antibacterial activity against methicillin-resistant Staphylococcus aureus ATCC 33591 after 18 hrs by agar dilution method; assay type: functional; details: ATCC 33591, 18 h
# [3] = system: Staphylococcus aureus; test: Antibacterial activity against VAN-intermediate Staphylococcus aureus ATCC 700698 after 18 hrs by agar dilution method; assay type: functional; details: ATCC 700698, 18 h
# [4] = system: Staphylococcus epidermidis; test: Antibacterial activity against methicillin-resistant Staphylococcus epidermidis 13-3 after 18 hrs by agar dilution method; assay type: functional; details: 13-3, 18 h
# [5] = system: Enterococcus faecalis; test: Antibacterial activity against VAN-sensitive Enterococcus faecalis ATCC 29212 after 18 hrs by agar dilution method; assay type: functional; details: ATCC 29212, 18 h
# [6] = system: Enterococcus faecalis; test: Antibacterial activity against VAN-resistant Enterococcus faecalis ATCC 51299 after 18 hrs by agar dilution method; assay type: functional; details: ATCC 51299, 18 h
# [7] = system: Enterococcus faecium; test: Antibacterial activity against VAN-resistant Enterococcus faecium ATCC 700221 after 18 hrs by agar dilution method; assay type: functional; details: ATCC 700221, 18 h
# [8] = system: Staphylococcus aureus; test: Antibacterial activity against methicillin-resistant Staphylococcus aureus 18-4 after 18 hrs by agar dilution method; assay type: functional; details: 18-4, 18 h
# [9] = system: Staphylococcus aureus; test: Bactericidal activity against methicillin-resistant Staphylococcus aureus 18-4 assessed as reduction in bacterial growth at 2 to 32 times MIC measured within 8 hrs by time kill assay relative to control; assay type: functional
# [10] = system: Staphylococcus aureus; test: Bactericidal activity against methicillin-resistant Staphylococcus aureus 18-4 assessed as reduction in bacterial growth at 2 times MIC measured after 24 hrs by time kill assay relative to control; assay type: functional
# [11] = system: Staphylococcus aureus; test: Bactericidal activity against methicillin-resistant Staphylococcus aureus 18-4 assessed as reduction in bacterial growth at 8 times MIC measured within 2 hrs by time kill assay relative to control; assay type: functional
# [12] = target: Topoisomerase IV (Staphylococcus aureus) (UniProt P0C1U9+P0C1S7); test: Inhibition of methicillin-resistant Staphylococcus aureus topoisomerase-4 assessed as reduction in DNA decatenation at 2.5 to 5 ug/ml using super coiled pBR322 plasmid DNA as substrate measured after 30 mins by agarose gel electrophoresis method relative to control; assay type: protein-complex assay
compound,measurement,setting,value
CCCc1cc2c3ccc(OC)c(OC)c3c[n+]3c2c2c(cc4c(c12)OCO4)CC3.[Cl-],MIC,[1],2 µg/mL
same,MIC,[2],16 µg/mL
same,MIC,[3],8 µg/mL
same,MIC,[4],4 µg/mL
same,MIC,[5],8 µg/mL
same,MIC,[6],8 µg/mL
same,MIC,[7],8 µg/mL
C=CCc1c2c(OC)c(OC)ccc2c2ccc3c4c(cc5c3c2[n+]1CC5)OCO4.[Br-],MIC,[1],16 µg/mL
same,MIC,[2],16 µg/mL
same,MIC,[3],16 µg/mL
same,MIC,[4],8 µg/mL
same,MIC,[5],16 µg/mL
same,MIC,[6],16 µg/mL
same,MIC,[7],16 µg/mL
COc1cc2c3c(ccc4c5ccc(OC)c(OC)c5c(-c5ccc(Cl)cc5)[n+](c43)CC2)c1OC.[Br-],MIC,[1],2 µg/mL
same,MIC,[2],8 µg/mL
same,MIC,[3],16 µg/mL
same,MIC,[4],2 µg/mL
same,MIC,[5],16 µg/mL
same,MIC,[6],8 µg/mL
same,MIC,[7],> 128 µg/mL
COc1ccc2c(c1OC)c(CC(C)C)[n+]1c3c2ccc2c4c(cc(c23)CC1)OCO4.[Br-],MIC,[1],4 µg/mL
same,MIC,[2],16 µg/mL
same,MIC,[3],16 µg/mL
same,MIC,[4],4 µg/mL
same,MIC,[5],16 µg/mL
same,MIC,[6],16 µg/mL
same,MIC,[7],16 µg/mL
COc1cc2c3c(ccc4c5ccc(OC)c(OC)c5c(-c5ccc6c(c5)OCO6)[n+](c43)CC2)c1OC.[Br-],MIC,[1],4 µg/mL
same,MIC,[2],8 µg/mL
same,MIC,[3],32 µg/mL
same,MIC,[4],2 µg/mL
same,MIC,[5],32 µg/mL
same,MIC,[6],32 µg/mL
same,MIC,[7],> 128 µg/mL
CCOc1c(OC)ccc2c1c(-c1ccccc1)[n+]1c3c2ccc2c4c(cc(c23)CC1)OCO4.[Br-],MIC,[1],1 µg/mL
same,MIC,[2],8 µg/mL
same,MIC,[3],32 µg/mL
same,MIC,[4],1 µg/mL
same,MIC,[5],4 µg/mL
same,MIC,[6],4 µg/mL
same,MIC,[7],2 µg/mL
COc1ccc2c(c1OC)c(-c1ccccc1)[n+]1c3c2ccc2c4c(cc(c23)CC1)OCO4.[Br-],MIC,[1],1 µg/mL
same,MIC,[2],4 µg/mL
same,MIC,[3],8 µg/mL
same,MIC,[4],1 µg/mL
same,MIC,[5],4 µg/mL
same,MIC,[6],4 µg/mL
same,MIC,[7],4 µg/mL
same,MIC,[8],1 µg/mL
same,growth inhibition (GI),[9],>90%
same,growth inhibition (GI),[10],99.99%
same,growth inhibition (GI),[11],100%
same,inhibition,[12],Active
CCc1cc2c3ccc(OC)c(OC)c3c(CC(C)C)[n+]3c2c2c(cc4c(c12)OCO4)CC3.[Br-],MIC,[1],1 µg/mL
same,MIC,[2],4 µg/mL
same,MIC,[3],32 µg/mL
same,MIC,[4],1 µg/mL
same,MIC,[5],4 µg/mL
same,MIC,[6],8 µg/mL
same,MIC,[7],2 µg/mL
COc1ccc2c(c1OC)c(-c1ccc3c(c1)OCO3)[n+]1c3c2ccc2c4c(cc(c23)CC1)OCO4.[Br-],MIC,[1],16 µg/mL
same,MIC,[2],16 µg/mL
same,MIC,[3],32 µg/mL
same,MIC,[4],2 µg/mL
same,MIC,[5],8 µg/mL
same,MIC,[6],8 µg/mL
same,MIC,[7],8 µg/mL
CCc1c2c(OC)c(OC)ccc2c2ccc3c4c(cc5c3c2[n+]1CC5)OCO4.[Br-],MIC,[1],4 µg/mL
same,MIC,[2],16 µg/mL
same,MIC,[3],64 µg/mL
same,MIC,[4],4 µg/mL
same,MIC,[5],16 µg/mL
same,MIC,[6],16 µg/mL
same,MIC,[7],8 µg/mL
COc1ccc2c(c1OC)c(-c1ccc(Cl)cc1)[n+]1c3c2ccc2c4c(cc(c23)CC1)OCO4.[Br-],MIC,[1],2 µg/mL
same,MIC,[2],4 µg/mL
same,MIC,[3],8 µg/mL
same,MIC,[4],1 µg/mL
same,MIC,[5],8 µg/mL
same,MIC,[6],8 µg/mL
same,MIC,[7],> 128 µg/mL
COc1ccc2c(c1OC)c(-c1ccc(F)cc1)[n+]1c3c2ccc2c4c(cc(c23)CC1)OCO4.[Br-],MIC,[1],8 µg/mL
same,MIC,[2],8 µg/mL
same,MIC,[3],16 µg/mL
same,MIC,[4],4 µg/mL
same,MIC,[5],16 µg/mL
same,MIC,[6],16 µg/mL
same,MIC,[7],> 128 µg/mL
CCCc1cc2c3ccc(OC)c(OC)c3c(-c3ccc(Cl)cc3)[n+]3c2c2c(cc4c(c12)OCO4)CC3.[Br-],MIC,[1],2 µg/mL
same,MIC,[2],8 µg/mL
same,MIC,[3],32 µg/mL
same,MIC,[4],4 µg/mL
same,MIC,[5],16 µg/mL
same,MIC,[6],32 µg/mL
same,MIC,[7],> 128 µg/mL
CCCCc1cc2c3ccc(OC)c(OC)c3c(-c3ccc(Cl)cc3)[n+]3c2c2c(cc4c(c12)OCO4)CC3.[Br-],MIC,[1],1 µg/mL
same,MIC,[2],1 µg/mL
same,MIC,[3],32 µg/mL
same,MIC,[4],1 µg/mL
same,MIC,[5],1 µg/mL
same,MIC,[6],2 µg/mL
same,MIC,[7],1 µg/mL
CCc1cc2c3ccc(OC)c(OC)c3c(-c3ccc(Cl)cc3)[n+]3c2c2c(cc4c(c12)OCO4)CC3.[Br-],MIC,[1],1 µg/mL
same,MIC,[2],2 µg/mL
same,MIC,[3],32 µg/mL
same,MIC,[4],1 µg/mL
same,MIC,[5],4 µg/mL
same,MIC,[6],4 µg/mL
same,MIC,[7],1 µg/mL
CCCc1cc2c3ccc(OC)c(OC)c3c(-c3ccccc3)[n+]3c2c2c(cc4c(c12)OCO4)CC3.[Br-],MIC,[1],2 µg/mL
same,MIC,[2],2 µg/mL
same,MIC,[3],32 µg/mL
same,MIC,[4],2 µg/mL
same,MIC,[5],8 µg/mL
same,MIC,[6],16 µg/mL
same,MIC,[7],> 128 µg/mL
CCCCc1cc2c3ccc(OC)c(OC)c3c[n+]3c2c2c(cc4c(c12)OCO4)CC3.[Cl-],MIC,[1],4 µg/mL
same,MIC,[2],4 µg/mL
same,MIC,[3],16 µg/mL
same,MIC,[4],32 µg/mL
same,MIC,[5],16 µg/mL
same,MIC,[6],32 µg/mL
same,MIC,[7],16 µg/mL
C=Cc1c2c(OC)c(OC)ccc2c2cc(CC)c3c4c(cc5c3c2[n+]1CC5)OCO4.[Br-],MIC,[1],1 µg/mL
same,MIC,[2],2 µg/mL
same,MIC,[3],32 µg/mL
same,MIC,[4],1 µg/mL
same,MIC,[5],2 µg/mL
same,MIC,[6],4 µg/mL
same,MIC,[7],1 µg/mL
CCCCc1cc2c3ccc(OC)c(OC)c3c(-c3ccccc3)[n+]3c2c2c(cc4c(c12)OCO4)CC3.[Br-],MIC,[1],1 µg/mL
same,MIC,[2],2 µg/mL
same,MIC,[3],32 µg/mL
same,MIC,[4],1 µg/mL
same,MIC,[5],2 µg/mL
same,MIC,[6],4 µg/mL
same,MIC,[7],1 µg/mL
COc1cc2c3c(ccc4c5ccc(OC)c(OC)c5c(-c5ccccc5)[n+](c43)CC2)c1OC.[Br-],MIC,[1],4 µg/mL
same,MIC,[2],16 µg/mL
same,MIC,[3],32 µg/mL
same,MIC,[4],4 µg/mL
same,MIC,[5],32 µg/mL
same,MIC,[6],32 µg/mL
same,MIC,[7],> 128 µg/mL
CCc1cc2c3ccc(OC)c(OC)c3c(-c3ccccc3)[n+]3c2c2c(cc4c(c12)OCO4)CC3.[Br-],MIC,[1],1 µg/mL
same,MIC,[2],8 µg/mL
same,MIC,[3],32 µg/mL
same,MIC,[4],1 µg/mL
same,MIC,[5],4 µg/mL
same,MIC,[6],4 µg/mL
same,MIC,[7],1 µg/mL
COc1ccc2c(c1OC)c(-c1ccc(C)cc1)[n+]1c3c2ccc2c4c(cc(c23)CC1)OCO4.[Br-],MIC,[1],8 µg/mL
same,MIC,[2],16 µg/mL
same,MIC,[3],16 µg/mL
same,MIC,[4],8 µg/mL
same,MIC,[5],16 µg/mL
same,MIC,[6],16 µg/mL
same,MIC,[7],16 µg/mL
COc1ccc2c(c1OC)c(C1CC1)[n+]1c3c2ccc2c4c(cc(c23)CC1)OCO4.[Br-],MIC,[1],8 µg/mL
same,MIC,[2],16 µg/mL
same,MIC,[3],16 µg/mL
same,MIC,[4],8 µg/mL
same,MIC,[5],16 µg/mL
same,MIC,[6],16 µg/mL
same,MIC,[7],16 µg/mL
C=Cc1c2c(OC)c(OC)ccc2c2ccc3c4c(cc5c3c2[n+]1CC5)OCO4.[Br-],MIC,[1],4 µg/mL
same,MIC,[2],8 µg/mL
same,MIC,[3],8 µg/mL
same,MIC,[4],2 µg/mL
same,MIC,[5],4 µg/mL
same,MIC,[6],4 µg/mL
same,MIC,[7],4 µg/mL
CN[C@H](CC(C)C)C(=O)N[C@H]1C(=O)N[C@@H](CC(N)=O)C(=O)N[C@H]2C(=O)N[C@H]3C(=O)N[C@H](C(=O)N[C@H](C(=O)O)c4cc(O)cc(O)c4-c4cc3ccc4O)[C@H](O)c3ccc(c(Cl)c3)Oc3cc2cc(c3O[C@@H]2O[C@H](CO)[C@@H](O)[C@H](O)[C@H]2O[C@H]2C[C@](C)(N)[C@H](O)[C@H](C)O2)Oc2ccc(cc2Cl)[C@H]1O [VANCOMYCIN],MIC,[3],8 µg/mL
same,MIC,[5],2 µg/mL
same,MIC,[6],32 µg/mL
same,MIC,[7],64 µg/mL
CCc1cc2c3ccc(OC)c(OC)c3c[n+]3c2c2c(cc4c(c12)OCO4)CC3.[Cl-],MIC,[1],2 µg/mL
same,MIC,[2],4 µg/mL
same,MIC,[3],16 µg/mL
same,MIC,[4],1 µg/mL
same,MIC,[5],8 µg/mL
same,MIC,[6],8 µg/mL
same,MIC,[7],32 µg/mL
